For series [1], the system named is mBMDCs. The experiment in a line: IL-12 induction in mBMDCs (ELISA). In kind it is cell-based, mouse. To be noted: 10 μM / dose response. On the procedure:
(§1) All these analogs were evaluated for induction of IL-12 cytokine at 10 μM, followed by dose response IL-12 induction for selected analogs. These analogs were also evaluated for exosome release by quantitating EV release in the supernatant post 48 hours incubation with CD63-Tluc-CD9-EmGFP THP-1 reporter cells.
mBMDCs (10^5 cells/200 μL/well) were plated in wells of 96-well plates and treated with test compound (5 μM or 10 μM) or vehicle (0.5% DMSO) overnight.
In general terms: An ELISA detects its analyte on a solid surface through an enzyme-linked reagent.

Series [2] concerns CD63-Tluc-CD9-EmGFP THP-1 reporter cells. The experiment in a line: CD63 Tluc-CD9 EmGFP THP-1 reporter cell assay (EV/exosome release). It counts as cell-based, human. To be noted: 48 hours incubation. As for the experimental part:
as §1
In the HTS using CD63-Tluc-CD9EmGFP reporter cells (CD63 HTS), PMA (10 ng/ml) was used as a positive control (Shpigelman et al., 2021) and 0.5% DMSO was used as negative control (vehicle, Veh). Briefly, the harvested cells were resuspended in assay media containing 10% exosome-depleted […] (#A2720801, Thermo Fisher Scientific) and plated at 2×10^5 cells/mL (50 μL/well of 384-well plates) (#3674, Corning). Test compounds were added at a final concentration of 10 μM to cells and incubated for 48 hours at 37° C. Subsequently, the plate was centrifuged, supernatant (25 μL) was transferred, and chemiluminescent was measured as recombinant luciferase activity (RLU) after 10 minutes incubation with TurboLuc assay reagent (TurboLuc™ One-Step Glow Assay kit, Thermo Fisher Scientific). The response that measures activation and subsequent release of EVs was calculated using the following formula; % response=100×(compound RLU−average Veh RLU)/(average PMA RLU−average Veh RLU). The viability of cells was assessed using PrestoBlue reagent (Thermo Fisher Scientific). Briefly, PrestoBlue reagent (2.5 μl) was added to the remaining cells and incubated for 30 minutes at room temperature, followed by fluorescence readout at (Ex 560 nm/Em 590 nm) which was normalized to fluorescence data of the Veh wells within the plate to obtain “% viability” calculated as 100×(compound fluorescence/average Veh fluorescence).
CD63 Tluc-CD9 EmGFP THP-1 reporter cell assay. CD63 Tluc CD9 EmGFP THP-1 reporter cell (designated as CD63 Tluc reporter cells) were incubated with 10 μM test compounds, ION (1 μM), or 0.5% DMSO (negative control) in the RPMI 1640 supplemented with exosome-depleted FBS at 5×10^4 cells in 200 μL/well for a 96-well plate for 48 hours at 37° C. Subsequently, the plate was centrifuged, the supernatant was transferred, and chemiluminescence was measured by TurboLuc™ Luciferase One-Step Glow Assay Kit. The response that measures activation and subsequent release of EVs was calculated using the following formula; % response=100×(compound RLU−average Veh RLU)/(average PMA RLU−average Veh RLU).

Series [3] has as its system 4T1 breast cancer. The experiment in a line: Murine lung metastasis models (4T1 breast cancer). In kind it is in vivo, mouse. From the text: Recent advances in cancer immunotherapy have improved patient survival. However, only a minority patients with pulmonary metastatic disease responds to treatment with checkpoint inhibitors. As an alternate approach, we have tested the ability of systemically administered 1V270, a toll-like receptor 7 (TLR7) agonist conjugated to a phospholipid, to inhibit lung metastases in two variant murine 4T1 breast cancer models, as well as in B16 melanoma, and Lewis lung c models.

Series [4] relates to mBMDCs. The series is described as follows: Costimulatory molecule expression on mBMDCs (flow cytometry). It counts as cell-based, mouse. To be noted: 634 10 μM, ION 1 μM, MPLA 1 μg/mL overnight, vs Veh. On the procedure: FIGS. 26A-26D. Flow cytometric analysis for costimulatory molecules on mBMDCs. For costimulatory molecules on mBMDCs, mBMDCs (10^6 cells/mL) were incubated with 634 (10 μM), ION (1 μM), and MPLA (1 μg/mL) for 20-24 hours. 0.5% DMSO was used as a vehicle. After removing the supernatant, cells were washed with the stain buffer and incubated with anti-mouse CD16/32 antibody for blocking FcR. Cells were stained with an antibody cocktail with anti-CD86 (A), anti-CD80 (B), anti-MHC class II (C), and anti-CD40 (D) antibodies for 30 minutes at 4° C. Cells were then washed and stained with DAPI (4′,6-diamino-2phenylindole) for 10 minutes at room temperature to exclude dead cells (DAPI^high) from the analysis. Data were acquired using MACSQuant Analyzer 10 (Miltenyi Biotec, Germany) and analyzed with FlowJo (version 10.8.1).
mBMDCs (10^5 cells/200 μL/well) were treated with a test compound (10 μM) or Veh (0.5% DMSO) overnight and then the costimulatory molecule expression on mBMDCs was evaluated using flow cytometry. The cells were stained with antibodies for CD11c, CD80, CD83, CD86, CD40, and MHC class II. Dead cells (DAPI high) were excluded from the analysis. Percent positive population of CD80, CD83, CD86, CD40, or MHC class II in the gated CD11c population were analyzed.
Costimulatory Molecule Expression Analysis. mBMDCs (10^6 cells/mL) were incubated with 10 μM compound, 1 μM lonomycin and 1 μg/mL MPLA for 20 to 24 hours. 0.5% DMSO was used as vehicle. Cells were incubated with anti-mouse CD16/32 antibody for blocking FcR and stained with anti-CD11c, anti-CD40, […], anti-CD83, […], or anti-MHC class II antibodies for 30 minutes at 4° C. Cells were stained with 4′,6-diamino-2-phenylindole (DAPI) for 10 minutes at RT. Data were acquired using MACSQuant Analyzer 10 (Miltenyi Biotec, Germany) and analyzed with FlowJo (version 10.8.1, Becton Dickinson, Ashland, OR)).
In general terms: A flow cytometer gives signals particle by particle.

Entries after “also recorded” stand apart in the source; their conditions may differ.

Data on seven compounds can be found in patent US20250281465A1, “MOLECULES THAT ENHANCE EXTRACELLULAR VESICLE RELEASE” (priority 2022, published 2025).

`COc1ccc(-c2nnc(-c3cccnc3)o2)cc1OC` [#1310]: in series [1], the IL-12 induction result is on record as “as potent as #645”. Regarding `Cc1cccc(-c2cncc(-c3nnc(-c4cccc5ccccc45)o3)c2)c1` [2C185], in series [1], the IL-12 induction entry was “enhance exosome release and IL-12 induction; also recorded: induced IL-12 in BMDCs”. In addition, the “exosome (EV) release in CD63 reporter THP-1 cells” value in series [2] is listed as “enhance exosome release; also recorded: enhanced exosome release in CD63 reporter THP-1 cells”. With `CCCCCCCC/C=C\CCCCCCCC(=O)OCC(COP(=O)(O)OCCNC(=O)c1ccc(Cn2c(=O)[nH]c3c(N)nc(OCCOC)nc32)cc1)OC(=O)CCCCCCC/C=C\CCCCCCCC` (stereo not drawn) [1V270], the “lung metastases / tumor cell colonization in the lungs” value in series [3] (4T1 breast cancer models, systemic administration) is reported as “inhibited lung metastases; also recorded: inhibited colonization by tumor cells in the lungs”. Further, in series [3] (compared to the unconjugated agonist), the toxic effects entry is recorded as “minimal toxic effects”. The “lung metastasis after intranasal administration” value in series [3] (intranasal administration) is on record as “suppressed lung metastasis”. Consider `c1ccc(-c2cn(-c3cncc(-c4cccs4)c3)nn2)cc1` [2H050], for which the IL-12 induction result in series [1] is on record as “significantly enhanced cytokine IL-12 induction”.

Take `C[C@H](CCC(=O)O)C[C@H](C)C[C@H](C)C(=O)/C=C(\O)[C@H](C)C[C@H](C)C/C=C/[C@@H](C)[C@@H](O)[C@@H](C)[C@@H](O)C[C@@H]1CC[C@@](C)([C@H]2CC[C@@](C)([C@@H](C)O)O2)O1` [ION, ionomycin, reference compound]: in series [4], the “CD80 expression on mBMDCs” value is “increased CD86 and CD80 expression on mBMDCs”; the “CD86 expression on mBMDCs” value was “increased CD86 and CD80 expression on mBMDCs”. On to `Clc1ccc(-c2nnc(-c3cccnc3)o2)cc1` [#1311], for which the IL-12 induction result in series [1] is “as potent as #645”.

Consider `Cc1ccccc1-c1cncc(-c2nnc(-c3cccc4ccccc34)o2)c1` [2C183], for which, in series [1], the IL-12 induction entry is on record as “induced IL-12 in BMDCs”. For the same compound, the “exosome (EV) release in CD63 reporter THP-1 cells” value in series [2] was “enhanced exosome release in CD63 reporter THP-1 cells”.
